In test [1] the test system is JNK1. Briefly: Western blot of proximal ascending aorta: JNK1 activation (Examples 4-5). The test is classed as in vivo, mice. The text has this:
All mice were cared for under strict compliance with the Animal Care and Use Committee of the Johns Hopkins University School of Medicine. The Fbn1^C1039G/+ and AT2KO lines were maintained n a pure C57BL/6 background (backcrossed for greater than 9 generations), allowing for valid comparisons. In order to further accommodate the potential for temporal- or background-specified variation, all comparisons were made between contemporary littermates when possible. The AT21C0 mice were obtained as a generous gift from Dr. Inagami (T. Ichiki et al., Nature 377, 748 (1995)). The Agtr2 gene resides on the X chromosome and therefore we used either male mice carrying the mutated allele (who are hemizygous) or homozygous females, both of which have been previously shown to be functionally null for the AT2 receptor (T. Ichiki et al., Nature 377, 748 (1995)). Mice were sacrificed with an inhalation overdose of halothane (Sigma-Aldrich, St. Louis). Mice underwent immediate laparotomy, descending abdominal aortic transection, and PBS (pH 7.4) was infused through the right and left ventricles to flush out the blood. Mice that were analyzed for Western Blot analysis had their proximal ascending aortas (root to right brachiocephalic trunk) immediately dissected out, flash frozen in liquid nitrogen and stored at −80d until further processing. Mice that were analyzed for aortic histology had latex injected under low pressure into the left ventricular apex until it was visible in the descending abdominal aorta. Mice that were analyzed for lung histology had their trachea intubated with a 20-gauge blunted needle, and 0.5% agar was infused under a low and constant pressure to gradually inflate the lungs. […]
Mouse aortic root and ascending aortas (aortic root excluding the aortic valve to origin of right brachiocephalic trunk) were harvested, snap-frozen in liquid nitrogen and stored at −80° C. until processed. […] Equal protein loading of samples was determined by a protein assay (BioRad, CA), and confirmed by probing with antibodies against β-Actin or GAPDH (Sigma, Mo.). […]

For test [2], the system named is ERK1/2. Briefly: Western blot of proximal ascending aorta: ERK1/2 activation (Examples 6-8). The note with it: Fbn1^C1039G/+ mice, compared with placebo-treated littermates, FIG. 16B. The test is classed as in vivo, mice. The text has this:
All mice were cared for under strict compliance with the Animal Care and Use Committee of the Johns Hopkins University School of Medicine. The Smad4 haploinsufficient mice were a generous gift from Dr. Chuxia Deng (NIH/NIDDK, Bethesda). The Fbn1^C1039G/+ line was maintained on a C57BL/6 background, allowing for valid comparisons. In order to further accommodate the potential for temporal- or background-specific variation in genetic or pharmacological manipulation experiments, all comparisons were made between contemporary littermates. Mice were checked daily for death and all mice found dead were immediately necropsied to assess for evidence of aortic dissection. Mice were killed with an inhalation overdose of halothane (Sigma-Aldrich, St. Louis). Mice underwent immediate laparotomy, descending abdominal aortic transection, and PBS (pH 7.4) infusion through the left ventricle to flush out the blood. For Western blot analysis, the proximal ascending aorta (root to right brachiocephalic trunk) was removed, flash frozen in liquid nitrogen and stored at −80° C. Following PBS infusion, mice analyzed for aortic histology had latex injected under low pressure into the left ventricular apex until it was visible in the descending abdominal aorta. The mice were then fixed for 24 hours in 10% buffered formalin, after which the heart and aorta were removed and stored in 70% ethanol.
Mouse monoclonal TGFβNAb (1d11; R&D Systems, Minneapolis) was reconstituted in PBS and administered via intraperitoneal injection 3 times a week at a dose of 5 mg/kg. Treatment was initiated at 1 month of age and continued for 2 months. IgG (Zymed Laboratories Inc, San Francisco) was reconstituted in PBS, and administered at a dose of 10 mg/kg as a control. […]
Protein was extracted using the reagents and protocol from a Total Protein Extraction Kit, in conjunction with a Protein Phosphatase Inhibitor Cocktail (Millipore, MA). […] Equal protein loading of samples was determined by a protein assay (BioRad, CA) and confirmed by probing with antibodies against β-Actin or GAPDH (Sigma, Mo.). […]
On the technique in general: A western blot detects proteins with antibodies after separation by electrophoresis.

“Also recorded” adds a separate entry of the source.

With `CCCCc1nc(Cl)c(CO)n1Cc1ccc(-c2ccccc2-c2nn[nH]n2)cc1` [losartan], the JNK1 activation entry in test [1] (Fbn1^C1039G/+ mice, FIG. 13) was “small reduction in JNK1 activation; also recorded: modest reduction in JNK1 activation”; in test [1] (treated AT2KO:Fbn1^C1039G/+ versus treated Fbn1^C1039G/+ mice, FIG. 14), “no significant change; also recorded: no significant difference”. For the same compound, in test [2], the ERK1/2 activation entry is reported as “significant reduction in ERK1/2 activation”.

These data come from patent publication US20140148498A1, “METHODS AND COMPOSITIONS FOR THE TREATMENT OF MARFAN SYNDROME AND ASSOCIATED DISORDERS” (THE JOHNS HOPKINS UNIVERSITY, priority 2011, published 2014).
